Results on 1 compound are retold here after PMC6271978, “1H-2,3-Dihydroperimidine Derivatives: A New Class of Potent Protein Tyrosine Phosphatase 1B Inhibitors” (Molecules, 2013).

Holding throughout (assay type): biochemical
One test addresses T1, TCPTP (GST-TCPTP) (Homo sapiens, UniProt P17706).
T1 sequence (P17706 1-415): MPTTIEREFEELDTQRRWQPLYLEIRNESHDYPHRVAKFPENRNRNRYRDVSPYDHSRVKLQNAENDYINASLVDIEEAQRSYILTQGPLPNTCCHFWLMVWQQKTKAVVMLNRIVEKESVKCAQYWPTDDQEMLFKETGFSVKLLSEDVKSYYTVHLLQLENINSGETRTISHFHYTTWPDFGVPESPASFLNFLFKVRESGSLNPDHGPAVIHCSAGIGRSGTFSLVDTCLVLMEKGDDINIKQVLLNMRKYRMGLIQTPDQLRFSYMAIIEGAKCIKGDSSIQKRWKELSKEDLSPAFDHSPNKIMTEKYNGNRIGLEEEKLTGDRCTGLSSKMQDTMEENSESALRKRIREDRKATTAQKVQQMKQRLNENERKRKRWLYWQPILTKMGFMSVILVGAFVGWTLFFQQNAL
The test is described as follows: TCPTP inhibition, colorimetric pNPP assay. The procedure: (§1) In addition to potency improvements, we investigated the selectivity of three representative compounds, namely, 1, 46 and 49 against other PTPs (TCPTP, SHP-1, SHP-2, LAR). […] Besides TCPTP, we tested the inhibitory activity of these compounds on other three homogenous enzymes SHP-1, SHP-2, and LAR [25].
(§2) A colorimetric assay to measure inhibition against PTP1B and TCPTP was performed in 96-well plates. Briefly, the tested compounds were solubilized in DMSO and serially diluted into concentrations for the inhibitory test. The assays were carried out in a final volume of 100 μL containing 50 mmol/L MOPS, pH 6.5, 2 mmol/L pNPP, 30 nmol/L GST-PTP1B or GST-TCPTP,and 2% DMSO, and the catalysis of pNPP was continuously monitored on a SpectraMax 340 microplate reader at 405 nm for 3 min at 30 °C. The IC50 value was calculated from the nonlinear curve fitting of the percent inhibition [inhibition (%)] vs. the inhibitor concentration using the Equation (1): Inhibition (%) = 100/[1 + (IC50/[I]k)] (1) where k is the Hill coefficient. To study the inhibition on the other PTPase family members, SHP1, SHP2 and LAR were prepared and assays were performed according to procedures described previously. Briefly, the enzymatic activity of the SHP1, SHP2 and LARwere determined at 30 °C by monitoring the dephosphorylation of substrate 3-o-methylfluorescein phosphate (OMFP), product was then detected at a 485 nm excitation wavelength and 530 nm emission wavelength by the EnVision multilabe plate reader (Perkin-Elmer Life Sciences, Boston, MA, USA). The assays were carried out in a final volume of 50 μL containing 50 mmol/L MOPS, pH 6.8, 10 μmol/L OMFP, 20 nmol/L recombinant enzyme, 2 mmol/L dithiothreitol , 1 mmol/L EDTA, and 2% DMSO. The initial rate of the dephosphorylation was presented by the early linear region of the enzymatic reaction kinetic curve, the inhibitory activity of the compound was continuously monitored.

Another test has as its target T2, PTP1B (Homo sapiens, UniProt P18031).
T2 sequence (P18031 1-435): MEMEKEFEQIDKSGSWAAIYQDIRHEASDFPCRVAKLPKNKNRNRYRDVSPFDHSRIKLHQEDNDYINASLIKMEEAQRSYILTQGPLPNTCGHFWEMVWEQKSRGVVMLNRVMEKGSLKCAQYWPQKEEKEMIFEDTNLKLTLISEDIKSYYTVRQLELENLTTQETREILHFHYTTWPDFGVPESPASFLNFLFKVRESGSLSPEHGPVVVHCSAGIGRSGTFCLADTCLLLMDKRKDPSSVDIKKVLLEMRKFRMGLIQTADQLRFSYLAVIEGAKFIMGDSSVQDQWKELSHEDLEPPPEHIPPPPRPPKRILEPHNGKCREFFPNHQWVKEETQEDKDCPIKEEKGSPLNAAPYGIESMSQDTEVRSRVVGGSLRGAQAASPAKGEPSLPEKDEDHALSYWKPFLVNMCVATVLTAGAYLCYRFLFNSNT
Kind of test: Enzyme kinetics: fast-binding and inhibition modality on PTP1B. As for the experimental part: A kinetic study was performed in order to identify the inhibitory mechanism of compound 46 (Figure 2), using the reported enzyme kinetics assays.
To characterize the inhibitor of PTP1B, the assay was carried out in a 100 μL system containing 50 mmol/L MOPS, pH 6.5, 14 nmol/L PTP1B, pNPP in 2-fold dilution from 80 mmol/L, and different concentrations of the inhibitor. […] (2) where Km is the Michaelis constant, v is the initial rate, Vmax is the maximum rate, and [S] is the substrate concentration. The Ki value was obtained by the linear replot of apparent Km/Vmax (slope) from the primary reciprocal plot versus the inhibitor concentration [I] according to the equation Km/Vmax = 1 + [I]/Ki.

Another test has as its target T3, SHP-1 (Homo sapiens, UniProt P29350).
T3 construct: made in house
Kind of test: SHP-1 inhibition, OMFP substrate assay. As for the experimental part:
as §1, §2

Molecules are shown by their SMILES. “Also recorded” adds a separate entry of the source.

T3 sequence (P29350 whole entry): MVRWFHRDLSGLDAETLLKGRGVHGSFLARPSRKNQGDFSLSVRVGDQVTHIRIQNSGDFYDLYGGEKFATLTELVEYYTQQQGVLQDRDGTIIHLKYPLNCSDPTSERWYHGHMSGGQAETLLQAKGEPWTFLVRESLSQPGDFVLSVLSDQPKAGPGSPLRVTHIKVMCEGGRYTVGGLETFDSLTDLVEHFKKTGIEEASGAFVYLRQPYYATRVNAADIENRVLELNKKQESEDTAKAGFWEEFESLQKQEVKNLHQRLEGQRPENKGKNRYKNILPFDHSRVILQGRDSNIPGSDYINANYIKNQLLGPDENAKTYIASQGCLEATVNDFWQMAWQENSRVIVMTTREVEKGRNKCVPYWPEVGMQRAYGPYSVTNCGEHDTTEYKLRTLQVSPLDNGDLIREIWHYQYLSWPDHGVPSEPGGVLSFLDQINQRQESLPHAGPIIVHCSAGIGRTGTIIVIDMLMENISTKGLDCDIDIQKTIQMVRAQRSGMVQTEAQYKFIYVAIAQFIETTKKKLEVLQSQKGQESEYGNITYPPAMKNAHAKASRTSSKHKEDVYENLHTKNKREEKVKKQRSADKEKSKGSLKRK

On to `O=C(O)CNC(=O)c1ccc(C2Nc3cccc4cccc(c34)N2)nc1` [Compound 46], for which the 50% inhibitory concentration (IC50) at TCPTP (GST-TCPTP) (pNPP substrate, means ± SD of three replications, PC = oleanolic acid) came out at 2.3 ± 0.17 µM; against SHP-1 (OMFP substrate, means ± SD of three replications, PC = Na3VO4), 6.01 ± 0.2 µM. Also, at TCPTP (GST-TCPTP) (ratio of IC50 TCPTP to IC50 PTP1B), the “TCPTP/PTP1B (selectivity, fold)” value is given as 3.48. For the same compound, the “inhibition modality toward PTP1B” value at PTP1B (Lineweaver-Burk plot, increased Km, unchanged Vmax, pNPP substrate) is “competitive inhibitor; also recorded: Typical competitive inhibition”. The “binding behaviour of inhibition of PTP1B (time dependence)” value on PTP1B (preincubation of PTP1B with compound on ice for different times) is reported as “fast-binding inhibition”. Moreover, the “selectivity for PTP1B over SHP-1” value on SHP-1 (from IC50 values) is listed as “about 9 fold”.
